Like-named read-outs stand apart in the source and are kept apart here.
How the values were obtained:
coronary artery = experiment: Test for coronary dilating action (intracoronary administration, coronary blood flow in anaesthetized dogs); type: in vivo; settings: 10 μg./dog directly into the coronary artery, potency of adenosine taken as unity
Experimental: Each of dogs weighing 7 to 17 kilograms was anaesthetized with pentobarbital sodium salt (30 mg./kg., intravenously) and under supportive respiration, a left thoractomy was performed at the fifth interspace.
The heart of each animal was exposed and perfused with the blood guided from the animal's own left carotid artery to the left coronary artery circumflex through a polyethylene catheter. The coronary blood flow was measured with an electromagnetic flowmeter interposed in the external phase of the circuitry.
Each of the test compounds was administered directly into the coronary artery through the polyethylene catheter at a dose of 10 μg./dog. The potency of each compound was expressed with the potency of adenosine being taken as unity.

rat platelets = experiment: Test for the action to inhibit the aggregation of rat platelets caused by adenosine-5'-diphosphate (method of Born and Cross); type: cell-based; settings: read-out: Inhibitory action (%)
Source text: Test for the action to inhibit the aggregation of rat platelets caused by adenosine-5'-diphosphate

[1] = rat platelet-rich plasma, ADP-induced aggregation, concentration 15 μg/ml
[2] = rat platelet-rich plasma, ADP-induced aggregation, concentration 74 μg/ml
[3] = rat platelet-rich plasma, ADP-induced aggregation, concentration 370 μg/ml

Structure (SMILES): Nc1nc(N)c2ncn([C@@H]3O[C@H](CO)[C@@H](O)[C@H]3O)c2n1 [2,6-Diaminonebularine, 2,6-diaminonebularine]
- Maximum coronary flow (coronary artery): 0.50
- inhibition at 15 µg/mL (rat platelets; [1]): 0%
- inhibition at 74 µg/mL (rat platelets; [2]): 0%
- inhibition at 370 µg/mL (rat platelets; [3]): 0%

Structure (SMILES): Nc1ncnc2c1ncn2[C@@H]1O[C@H](CO)[C@@H](O)[C@H]1O [Adenosine]
- Maximum coronary flow (coronary artery): 1.00
- inhibition at 15 µg/mL (rat platelets; Rattus norvegicus, Platelet): 0%
- inhibition at 74 µg/mL (rat platelets; Rattus norvegicus, Platelet): 0%
- inhibition at 370 µg/mL (rat platelets; Rattus norvegicus, Platelet): 0%

Structure (SMILES): Nc1nc(NC2CCCCC2)nc2c1ncn2[C@@H]1O[C@H](CO)[C@@H](O)[C@H]1O [N^2 -Cyclohexyl-2,6-diaminonebularine, N^2-cyclohexyl-2,6-diaminonebularine]
- Maximum coronary flow (coronary artery): 2.20
- inhibition at 15 µg/mL (rat platelets; [1]): -32%
- inhibition at 74 µg/mL (rat platelets; [2]): -60%
- inhibition at 370 µg/mL (rat platelets; [3]): -95%

Structure (SMILES): CCNc1nc(N)c2ncn([C@@H]3O[C@H](CO)[C@@H](O)[C@H]3O)c2n1 [N^2 -Ethyl-2,6-diaminonebularine, N^2-ethyl-2,6-diaminonebularine]
- Maximum coronary flow (coronary artery): 0.91
- inhibition at 15 µg/mL (rat platelets; [1]): -11%
- inhibition at 74 µg/mL (rat platelets; [2]): -21%
- inhibition at 370 µg/mL (rat platelets; [3]): -40%

Structure (SMILES): Nc1nc(Nc2ccccc2)nc2c1ncn2[C@@H]1O[C@H](CO)[C@@H](O)[C@H]1O [N^2 -Phenyl-2,6-diaminonebularine, N^2-phenyl-2,6-diaminonebularine]
- Maximum coronary flow (coronary artery): 6.75
- inhibition at 15 µg/mL (rat platelets; [1]): -38%
- inhibition at 74 µg/mL (rat platelets; [2]): -52%
- inhibition at 370 µg/mL (rat platelets; [3]): -85%

Structure (SMILES): COc1ccc(Nc2nc(N)c3ncn([C@@H]4O[C@H](CO)[C@@H](O)[C@H]4O)c3n2)cc1 [N^2-(p-methoxyphenyl)-2,6-diaminonebularine]
- Maximum coronary flow (coronary artery): 2.37

From patent US3936439A, “2,6-Diaminonebularine derivatives” (Takeda Chemical Industries, Ltd., priority 1972, dated 1976)
